Several values for one entry are separate records, joined by “and”; a condition that tells them apart may be missing. Equal entries are not always repeated. Toxic doses and inconclusive results are not listed. Peptide text beside a SMILES is read from it. * marks the point of attachment. Boc = CC(C)(C)OC(=O)*
System: L1210 leukemia ip in BDF1 mice, survival T/C
Assay: NCI In Vivo Anticancer Drug Screen. Data for tumor model L1210 Leukemia (intraperitoneal) in B6D2F1 (BDF1) mice
Details: endpoint: mean survival time, higher = longer survival
Procedure, shortened: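 In this screen, tumor-bearing mice given compound are compared to those given vehicle, and their survival values are reported as a treated-to-control quotient.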

[1] = dose: 100.0 mg/kg/injection, schedule: Q01DX001 (ip), vehicle: carboxymethylcellulose (CMC)
[2] = dose: 200.0 mg/kg/injection, schedule: Q01DX001 (ip), vehicle: carboxymethylcellulose (CMC)
[3] = dose: 100.0 mg/kg/injection, schedule: Q01DX009 (ip), vehicle: Klucel (hydroxypropylcellulose) (HPC)
[4] = dose: 100.0 mg/kg/injection, schedule: Q04DX003 (ip), vehicle: Klucel (hydroxypropylcellulose) (HPC)
[5] = dose: 200.0 mg/kg/injection, schedule: Q01DX009 (ip), vehicle: Klucel (hydroxypropylcellulose) (HPC)
[6] = dose: 200.0 mg/kg/injection, schedule: Q04DX003 (ip), vehicle: Klucel (hydroxypropylcellulose) (HPC)
[7] = dose: 400.0 mg/kg/injection, schedule: Q04DX003 (ip), vehicle: Klucel (hydroxypropylcellulose) (HPC)
[8] = dose: 50.0 mg/kg/injection, schedule: Q04DX003 (ip), vehicle: saline with Tween-80
[9] = dose: 100.0 mg/kg/injection, schedule: Q01DX001 (ip), vehicle: saline with Tween-80
[10] = dose: 100.0 mg/kg/injection, schedule: Q01DX001 (ip), vehicle: saline
[11] = dose: 100.0 mg/kg/injection, schedule: Q04DX003 (ip), vehicle: saline with Tween-80
[12] = dose: 200.0 mg/kg/injection, schedule: Q04DX003 (ip), vehicle: saline with Tween-80
[13] = dose: 400.0 mg/kg/injection, schedule: Q04DX003 (ip), vehicle: saline with Tween-80
[14] = dose: 100.0 mg/kg/injection, schedule: Q01DX001 (ip), vehicle: Klucel (hydroxypropylcellulose) (HPC)
[15] = dose: 200.0 mg/kg/injection, schedule: Q01DX001 (ip), vehicle: Klucel (hydroxypropylcellulose) (HPC)

In the case of `CCN(CC)CCCC(C)Nc1c2ccc(Cl)cc2nc2ccc(OC)cc12` (configuration not stated), the T/C (dose: 7.5 mg/kg/injection, schedule: Q01DX Z (ip), vehicle: saline) is reported as 93 % of control, the T/C (dose: 15.0 mg/kg/injection, schedule: Q01DX Z (ip), vehicle: saline) is reported as 95 % of control and the T/C (dose: 25.0 mg/kg/injection, schedule: Q01DX015 (ip), vehicle: carboxymethylcellulose (CMC)) is reported as 102 % of control. The T/C (dose: 30.0 mg/kg/injection, schedule: Q01DX Z (ip), vehicle: saline) was 96 % of control, the T/C (dose: 50.0 mg/kg/injection, schedule: Q01DX015 (ip), vehicle: carboxymethylcellulose (CMC)) was 102 % of control and the T/C (dose: 50.0 mg/kg/injection, schedule: Q01DX Z (ip), vehicle: water) was 104 % of control. The T/C [1] was 96 % of control, the T/C (dose: 100.0 mg/kg/injection, schedule: Q01DX015 (ip), vehicle: carboxymethylcellulose (CMC)) was 102 % of control and the T/C [2] was 116 % of control.
In the case of `CCCC1OC(=O)C(C)O1` (configuration not stated), the T/C [3] is reported as 94 % of control, the T/C [4] is reported as 105 % of control and the T/C [5] is reported as 97 % of control. For the same molecule, the T/C [6] was 100 % of control and the T/C [7] was 103 % of control.
`CCOC(=O)c1cc(C)n(-c2ccc(-c3ccc(-n4c(C)cc(C(=O)OCC)c4C)c(C)c3)cc2C)c1C` was tested, and the T/C [4] was 98 % of control, the T/C [6] was 101 % of control and the T/C [7] was 93 % of control.
For `CCCCCCCCCCCCSC(=S)N(CC)CC`, the T/C (dose: 87.5 mg/kg/injection, schedule: Q01DX009 (ip), vehicle: other) was 89 % of control, the T/C (dose: 175.0 mg/kg/injection, schedule: Q01DX009 (ip), vehicle: other) was 93 % of control and the T/C (dose: 350.0 mg/kg/injection, schedule: Q01DX009 (ip), vehicle: other) was 97 % of control.
`O=C1CC2CCC1C2Cl` (configuration not stated) was tested, and the T/C [8] was 86 % of control, the T/C [9] was 97 % of control and the T/C (dose: 200.0 mg/kg/injection, schedule: Q01DX001 (ip), vehicle: saline with Tween-80) was 89 % of control.
With `Cc1cc(N)c(S)cc1C` the T/C (dose: 12.5 mg/kg/injection, schedule: Q04DX002 (ip), vehicle: saline with Tween-80) was 108 % of control, the T/C (dose: 25.0 mg/kg/injection, schedule: Q04DX002 (ip), vehicle: saline with Tween-80) was 90 % of control and the T/C (dose: 50.0 mg/kg/injection, schedule: Q01DX001 (ip), vehicle: saline) was 94 % of control. The T/C (dose: 50.0 mg/kg/injection, schedule: Q04DX002 (ip), vehicle: saline with Tween-80) was 101 % of control and the T/C [10] was 91 % of control.
In the case of `CC(C)CC(CC(C)C)NCC(C)OC(=O)c1ccc([N+](=O)[O-])cc1` (configuration not stated), the T/C (dose: 100.0 mg/kg/injection, schedule: Q01DX009 (ip), vehicle: water) is reported as 93 % of control, the T/C (dose: 100.0 mg/kg/injection, schedule: Q04DX003 (ip), vehicle: water) is reported as 98 % of control and the T/C (dose: 200.0 mg/kg/injection, schedule: Q01DX009 (ip), vehicle: water) is reported as 88 % of control. The T/C (dose: 200.0 mg/kg/injection, schedule: Q04DX003 (ip), vehicle: water) was 98 % of control, the T/C (dose: 400.0 mg/kg/injection, schedule: Q01DX009 (ip), vehicle: water) was 86 % of control and the T/C (dose: 400.0 mg/kg/injection, schedule: Q04DX003 (ip), vehicle: water) was 96 % of control.
With `Brc1ccc(N2N=NC3CN(c4ccccc4)CC32)cc1` (configuration not stated) the T/C [11] was 88 % of control, the T/C [12] was 91 % of control and the T/C [13] was 93 % of control.
For `CCOC(=O)Nc1cc(Cl)ccc1C`, the T/C [14] was 101 % of control, the T/C [3] was 102 % of control and the T/C (dose: 100.0 mg/kg/injection, schedule: Q04DX002 (ip), vehicle: Klucel (hydroxypropylcellulose) (HPC)) was 97 % of control and 100 % of control. The T/C [4] was 103 % of control, the T/C [15] was 102 % of control and the T/C [5] was 102 % of control. The T/C (dose: 200.0 mg/kg/injection, schedule: Q04DX002 (ip), vehicle: Klucel (hydroxypropylcellulose) (HPC)) was 100 % of control and 104 % of control, the T/C [6] was 107 % of control and the T/C (dose: 400.0 mg/kg/injection, schedule: Q01DX001 (ip), vehicle: Klucel (hydroxypropylcellulose) (HPC)) was 111 % of control. For the same molecule, the T/C (dose: 400.0 mg/kg/injection, schedule: Q01DX009 (ip), vehicle: Klucel (hydroxypropylcellulose) (HPC)) was 96 % of control, the T/C (dose: 400.0 mg/kg/injection, schedule: Q04DX002 (ip), vehicle: Klucel (hydroxypropylcellulose) (HPC)) was 103 % of control and 110 % of control and the T/C [7] was 96 % of control.
For `CSCC1OC(n2cnc3c(N)nc(Cl)nc32)C(O)C1O` (configuration not stated), the T/C (dose: 3.12 mg/kg/injection, schedule: Q01DX009 (ip), vehicle: saline with Tween-80) was 97 % of control, the T/C (dose: 6.25 mg/kg/injection, schedule: Q01DX009 (ip), vehicle: saline with Tween-80) was 102 % of control and the T/C (dose: 12.5 mg/kg/injection, schedule: Q01DX009 (ip), vehicle: saline with Tween-80) was 107 % of control. For the same molecule, the T/C (dose: 25.0 mg/kg/injection, schedule: Q01DX009 (ip), vehicle: saline with Tween-80) was 91 % of control, the T/C (dose: 25.0 mg/kg/injection, schedule: Q04DX003 (ip), vehicle: saline with Tween-80) was 97 % of control and the T/C [8] was 101 % of control. The T/C [9] was 95 % of control and the T/C [11] was 108 % of control.
With `O=C(c1ccc([N+](=O)[O-])cc1)N1CC1Cc1ccccc1` (configuration not stated) the T/C [14] was 89 % of control and the T/C [15] was 89 % of control.
With `O=[N+]([O-])c1ccc(Cl)c(OCCCCOc2ccc(S(=O)(=O)F)cc2)c1` the T/C [4] was 90 % of control and the T/C [6] was 94 % of control.
In the case of `C=C1CC2(CCCC3(CC(=C)C(=O)O3)C2(C)C)OC1=O` (configuration not stated), the T/C [10] is reported as 102 % of control and the T/C (dose: 200.0 mg/kg/injection, schedule: Q01DX001 (ip), vehicle: saline) is reported as 119 % of control.
In the case of `CCCCOCC(=O)OCCCC`, the T/C (dose: 100.0 mg/kg/injection, schedule: Q01DX009 (ip), vehicle: saline) is reported as 103 % of control, the T/C [11] is reported as 93 % of control and the T/C (dose: 200.0 mg/kg/injection, schedule: Q01DX009 (ip), vehicle: saline) is reported as 105 % of control. The T/C [12] was 94 % of control, the T/C (dose: 400.0 mg/kg/injection, schedule: Q01DX009 (ip), vehicle: saline) was 87 % of control and the T/C [13] was 93 % of control.
In the case of `CC(CCc1ccc(O)cc1)OC=O` (configuration not stated), the T/C (dose: 222.0 mg/kg/injection, schedule: Q01DX Z (ip), vehicle: saline) is reported as 104 % of control and the T/C (dose: 333.0 mg/kg/injection, schedule: Q01DX Z (ip), vehicle: saline) is reported as 91 % of control.
For `Brc1ccc(/C=C2\C=Cc3ccccc32)cc1`, the T/C [1] was 98 % of control, the T/C [2] was 93 % of control and the T/C (dose: 400.0 mg/kg/injection, schedule: Q01DX001 (ip), vehicle: carboxymethylcellulose (CMC)) was 93 % of control.
In the case of `CCOC(=O)C1(NC(=O)N(CCCl)N=O)CCCC1`, the T/C (dose: 16.0 mg/kg/injection, schedule: Q01DX001 (ip), vehicle: other) is reported as 105 % of control, the T/C (dose: 31.0 mg/kg/injection, schedule: Q01DX001 (ip), vehicle: other) is reported as 110 % of control and the T/C (dose: 108.0 mg/kg/injection, schedule: Q01DX001 (ip), vehicle: other) is reported as 178 % of control. The T/C (dose: 110.0 mg/kg/injection, schedule: Q01DX001 (ip), vehicle: other) was 185 % of control, the T/C (dose: 125.0 mg/kg/injection, schedule: Q01DX001 (ip), vehicle: other) was 217 % of control and the T/C (dose: 165.0 mg/kg/injection, schedule: Q01DX001 (ip), vehicle: other) was 236 % of control. For the same molecule, the T/C (dose: 168.0 mg/kg/injection, schedule: Q01DX001 (ip), vehicle: other) was 262 % of control, the T/C (dose: 247.0 mg/kg/injection, schedule: Q01DX001 (ip), vehicle: other) was 272 % of control and the T/C (dose: 250.0 mg/kg/injection, schedule: Q01DX001 (ip), vehicle: other) was 278 % of control and 314 % of control. The T/C (dose: 370.0 mg/kg/injection, schedule: Q01DX001 (ip), vehicle: other) was 250 % of control, the T/C (dose: 375.0 mg/kg/injection, schedule: Q01DX001 (ip), vehicle: other) was 115 % of control and the T/C (dose: 555.0 mg/kg/injection, schedule: Q01DX001 (ip), vehicle: other) was 94 % of control.
`O=C(Nc1ccccc1)Nc1ccc([N+](=O)[O-])cc1O` was tested, and the T/C [11] was 103 % of control, the T/C [12] was 113 % of control and the T/C [13] was 100 % of control.
For `COC(=O)CNC(=O)C(CC(C)C)NC(=O)C(CC(C)C)NC(=O)OC(C)(C)C` (stereo not drawn) (Boc-Leu-Leu-Gly-OMe; configuration not given here), the T/C (dose: 75.0 mg/kg/injection, schedule: Q01DX001 (ip), vehicle: saline) was 106 % of control, the T/C (dose: 150.0 mg/kg/injection, schedule: Q01DX001 (ip), vehicle: saline) was 98 % of control and the T/C (dose: 300.0 mg/kg/injection, schedule: Q01DX001 (ip), vehicle: saline) was 98 % of control.
